Test results taken from patent US8389468B2, “Approach to the treatment of compartment syndrome” (Lantmannen AS-Faktor AB, priority 2006, dated 2013).

How the values were obtained:
Staphylococcus areus = assay: Yellow pigment retained in cultured Staphylococcus areus; format: cell-based; details: cultured over night or 2 days with AF-16, vs vehicle
Text: Effects of AF was investigated in addition in prokaryotic cells, which are enclosed by a complex cell wall, thereby enabling the development of elevated pressure due to hampered membrane functions. That was done in bacteria, which synthesize and release a wide variety of substances that may cause damage to mammalian cells and thus to a body. Examples on such products are pigments, enzymes and toxins, which are transferred through the outer bacterial membrane to the extracellular environment. Inhibition of such membrane activities would reduce or even block the transfer and/or release of such pathogenic substances. In order to investigate if the peptide AF-16 affected the transfer of bacterial products from its synthesis in the bacterium to its environment, the following experiment was performed. The bacterium Staphylococcus areus, which synthesize a yellow pigment, was cultured over night or, occasionally for 2 days, in the presence or absence of the peptide AF-16. After a day or two was the bacterial culture rinsed, and then concentrated by centrifugation. The yellow pigment formed by the Staphylococcus areus was extracted from the permeabilized, pelleted bacteria with methanol and the light absorption determined by spectrometry.

[1] = test system: inflammation markers IL-1, IL-6, and TNF-a; assay: Inflammation markers in CSF of HSV-1 infected rats; format: in vivo, rat; details: day 6, 1 or 10 pg intranasally twice daily, n=3
Method: To test that hypothesis, adult rats were infected by having a solution of the herpes simplex virus type 1 (HSV-1; strain 2762, batch 041028; 1.7×10^7 PFU/mL) instilled in their right nostril. Half of the animals received 10 min later 25 μL (1 or 10 pg) of AF-16 in their right nostril, and had thereafter the same dose of AF-16 instilled every morning at 8 AM and every night at 6 PM until the experiment was terminated on day 6. The other half of the HSV-1 infected rats received at the same time intervals 25 μL of the vehicle, phosphate buffered saline. On day 6, cerebrospinal fluid (CSF) samples were taken from the animals, either treated with AF-16 (n=3), or the vehicle (n=3), according to the procedure described by Huang, Saljo and Hansson (1996). […] It is concluded that treatment with AF-16 is not likely to improve the survival of rodents suffering from HSV-1 encephalitis by altering the inflammatory response, but by normalizing the intracranial pressure, thereby preventing prevalence of high ICP in a CC and thereby the development of a CS. The deleterious effects caused by the HSV-1 encephalitis were thus considered to be due to that AF hampered the development of a CS.

HSV-1 infected rats = assay: Intracranial pressure (ICP) and neurological symptoms in HSV-1 infected rats, fibre optic pressure sensor; format: in vivo, rat
Method: Adult rats were infected by having a solution of the Herpes Simplex virus type 1 (HSV-1; strain 2762, batch 041028; 1.7×10^7 PFU/mL; 25 pL) instilled in their right nostril. One group of animals (n=6) received 10 min after the infection 25 pL (10 pg) of AF-16 in their right nostril, and had thereafter the same dose of AF-16 instilled twice daily, every morning at 8 AM and every night at 6 PM, until the experiment was terminated on day 6. Additional HSV-1 infected rats (n=6) received in the nose at the same time intervals 25 pL of the vehicle, phosphate buffered saline (PBS). On day 6, the animals were anaesthetized, a surgical incision made through the skin on the head, and the skull bone freed from periostium and connective tissue. A hole with a diameter of about 1 mm was drilled through the right parietal bone and a miniature pressure sensor inserted 3-5 mm into the brain or into the lateral ventricle. A fibre optic pressure measure system (Samba System 3200 & Samba Preclin 420 sensor; Samba Sensors AB, V Frolunda, Sweden) with a very small diameter, ve. 0.4 mm, was used. […] HSV-1 infected rats treated with just the vehicle were measured to have as high pressures as up to 30-45 mm Hg (FIG. 2a), considerably affect the animals as reflected by symptoms of neurological dysfunction of increasing severity. In contrast, HSV-1 infected rats treated from the time of infection with AF-16 twice daily had almost normal ICP, 8-14 mm Hg (FIG. 2 b).
Additional HSV-1 infected animals with distinctly overt symptoms were as well treated with 10 or 25 pg AF-16 intranasally, starting on day 5, 6 or 7, i.e. after having had the vehicle during the previous days. […] Thus, non of the acutely AF-16 treated rats had any persistent signs of deleterious ICP and thus no CS developed. […] That is seen in the mentioned figure (FIG. 5 a) as there is no red staining of the right half on the figure. However, treatment with 10 or 25 pg AF-16 intranasally turned the picture in HSV-1 infected rats as in the normal, non-infected ones. […] Thereby the outflow of CSF was restored and the ICP turned normal.

sciatic nerve = assay: Sciatic nerve crush, intraneural pressure; format: in vivo, rat
Text: Peripheral and autonomic nerves are all delimited by an endoneurium, an perineurium and outermost an epineurium. Multiple nerve fascicles form a nerve (Cf. Hansson et al., 1987). Tendons and some of the ligaments in a body are delimited by a tender collagen membrane-like structure, the synovial sheath. The inner border layer of the latter connect the tendon with its synovial vagina, which enable sliding at minimal friction. The periphery of the latter structure is enclosed by a fibrous, membrane-like layer, the fibrous vagina. The enclosing paratendinium is in some locations hold in position and receiving nutrition by mesotendons and by vinculae (Cf. Hansson et al., 1980). […] Such a procedure resulted not only in impaired nerve function and structure but also in impaired blood and lymph circulation, and caused swelling of the sciatic nerve, the development of oedema, which included adjacent and enveloping structures, The IFP turned elevated, as assessed by the insertion of a Samba fibre optic pressure measuring probe in the affected tissue. […] The pressure in the perineurium was determined to become elevated in a day in those treated with just the vehicle, in agreement with the macroscopically recognized swelling and local oedema, i.e. having developed a CS. […]

[2] = overt symptoms, 10 or 25 pg intranasally starting on day 5, 6 or 7

VCHSKTRSNPENNVGL [AF-16]
yellow pigment extracted from bacteria (light absorption), corrected for number of bacteria (Staphylococcus areus): much more of the yellow pigment | IL-1 concentration in CSF vs vehicle [1]: no significant difference in the concentrations | IL-6 concentration in CSF vs vehicle [1]: no significant difference in the concentrations | TNF-a concentration in CSF vs vehicle [1]: no significant difference in the concentrations | intracranial pressure (ICP) (HSV-1 infected rats; HSV-1 infected rats, 10 pg AF-16 intranasally twice daily from time of infection, day 6, normal rats 4-8, vehicle 30-45): 8-14 mm Hg | development of neurological dysfunctions (HSV-1 infected rats; intranasal treatment twice daily from infection): prevented the development of neurological dysfunctions | onset and duration of pressure reducing effect (HSV-1 infected rats; [2]): detectable within an hour and lasted for several hours | symptoms of neurological dysfunctions after acute treatment (HSV-1 infected rats; [2]): turned reduced within half an hour and were not demonstrable any longer after one hour | intraneural pressure (sciatic nerve; crushed sciatic nerve, high dose from time of injury): slightly elevated or close to that measured in a normal nerve | inflammation, oedema and tissue distortion (light microscopy) (sciatic nerve; injured sciatic nerves): reduced the inflammation and the oedema and the tissue distortion
